From patent publication US10550113B2, “2-phenyl-3H-imidazo[4,5-B]pyridine derivates useful as inhibitors of mammalian tyrosine kinase ROR1 activity” (Kancera AB, priority 2015, dated 2020) come the findings set out here.

The test system of one data set is PBMC from CLL patients. Put plainly: CellTiter-Blue cell viability assay, cell toxicity in PBMC from CLL patients. Type of data set: cell-based. Conditions: Homo sapiens, 50 000 cells/well, cultured 24, 48 and 72 h (time of the IC50 not stated), % cytotoxicity vs 0.2% DMSO. How it is done:
(§1) Method for Measurement of Cell Toxicity
(§2) The CellTiter-Blue® Cell Viability Assay provides a homogeneous, fluorometric method for estimating the number of viable cells present in multi-well plates. The assay uses the indicator dye resazurin to measure the metabolic capacity of cells. Viable cells retain the ability to reduce resazurin into resorufin, which is highly fluorescent.
(§3) Stock solutions (10 or 100 mM in DMSO) of compounds were serially diluted 1:2 in 11 concentrations and 25 nL/well (100 mM stock) or 50 nL/well (10 mM stock) were acoustically dispensed in assay plates with an EDC acoustic dispenser. Final starting concentration in the assay was 20 μM (0.2% DMSO) or 100 μM (0.1% DMSO) for test compounds.
(§4) Peripheral blood mononuclear cells (PBMC) from CLL patients or healthy volunteers were seeded in assay plates (384-well black/clear, Greiner #781091) pre-dispensed with compounds, 25 μL/well, and cultured for 24, 48 and 72 h. The cell concentration was 50 000 cells/well for PBMC from CLL patients or healthy volunteers. After 24, 48 and 72 h culture, Celltiter Blue reagent was added (5 μL/well) and the plates were incubated for 2 h. The plates were read in an Envision fluorescence reader (PerkinElmer) with Ex544 nm/Em590 nm. Results were calculated as % cytotoxicity compared to background (cells treated with 0.2% DMSO).
(§5) Thus, IC50 values for cell toxicity in PBMC from CLL patients as well as healthy volunteers for some compounds of the invention are shown in Table 3.
In general terms: Alamar Blue is a resazurin reagent that responds to reducing activity.

The nature of data set [1]: CellTiter-Blue cell viability assay, cell toxicity in PBMC from healthy volunteers. The data set is classed as cell-based. Conditions: human, 50 000 cells/well, cultured 24, 48 and 72 h (time of the IC50 not stated), % cytotoxicity vs 0.2% DMSO. How it is done:
as §1, §2, §3, §4, §5

A word on the IC50: it is the concentration that inhibits the measured activity by half. Low readings indicate higher potency, high ones lower potency.

In the case of `CNC(=O)COc1ccc(-c2nc3c(NC4CCN(Cc5ccncc5)CC4)c(Cl)cnc3[nH]2)cc1` [Example 71, 2-[4-(6-chloro-7-{[1-(pyridin-4-ylmethyl)piperidin-4-yl]amino}-3H-imidazo[4,5-b]pyridin-2-yl)phenoxy]-N-methylacetamide], the IC50 in the data set on PBMC from CLL patients is 1900 nM; in data set [1], above 20000 nM.

Take `CN(C)C(=O)COc1ccc(-c2nc3c(N[C@H]4CCN(Cc5ccccc5)C4)c(Cl)cnc3[nH]2)cc1` [Example 64, 2-[4-(7-{[(3S)-1-benzylpyrrolidin-3-yl]amino}-6-chloro-3H-imidazo[4,5-b]pyridin-2-yl)phenoxy]-N,N-dimethylacetamide]: the IC50 with PBMC from CLL patients was determined as 890 nM; in data set [1] it was 13900 nM.

Turning to `CNC(=O)COc1ccc(-c2nc3c(NC4CCN(C)CC4)c(Cl)cnc3[nH]2)cc1OC` [Example 168, 2-(4-{6-chloro-7-[(1-methylpiperidin-4-yl)amino]-3H-imidazo[4,5-b]pyridin-2-yl}-2-methoxyphenoxy)-N-methylacetamide], the IC50 is 250 nM with PBMC from CLL patients and above 20000 nM in data set [1].

For `CNC(=O)COc1ccc(-c2nc3c(NC4CCN(CCOc5ccccc5)CC4)c(Cl)cnc3[nH]2)cc1` [Example 96, 2-[4-(6-chloro-7-{[1-(2-phenoxyethyl)piperidin-4-yl]amino}-3H-imidazo[4,5-b]pyridin-2-yl)phenoxy]-N-methylacetamide], the half-inhibitory concentration (IC50) is 310 nM in the data set on PBMC from CLL patients and 13600 nM in data set [1].

As for `CNC(=O)COc1ccc(-c2nc3c(N(C)C4CCN(Cc5ccccc5)CC4)c(Cl)cnc3[nH]2)cc1` [Example 19, 2-(4-{7-[(1-benzylpiperidin-4-yl)(methyl)amino]-6-chloro-3H-imidazo[4,5-b]pyridin-2-yl}phenoxy)-N-methylacetamide], the IC50 in the data set on PBMC from CLL patients is 3230 nM; in data set [1], above 20000 nM.

As to `CNC(=O)COc1ccc(-c2nc3c(NC4CCN(C)CC4)c(Br)cnc3[nH]2)cc1F` [Example 184, 2-(4-{6-bromo-7-[(1-methylpiperidin-4-yl)amino]-3H-imidazo[4,5-b]pyridin-2-yl}-2-fluorophenoxy)-N-methylacetamide], the IC50 in the data set on PBMC from CLL patients is 110 nM; in data set [1], above 20000 nM.

Regarding `CN1CCC(Nc2c(Cl)cnc3[nH]c(-c4ccc(OCC(=O)NCCC5CCOCC5)cc4)nc23)CC1` [Example 147, 2-(4-{6-chloro-7-[(1-methylpiperidin-4-yl)amino]-3H-imidazo[4,5-b]pyridin-2-yl}phenoxy)-N-[2-(tetrahydro-2H-pyran-4-yl)ethyl]acetamide], the IC50 with PBMC from CLL patients is 140 nM; in data set [1], above 20000 nM.

On to `CCN1CC[C@H](Nc2c(Cl)cnc3[nH]c(-c4ccc(OCC(=O)NC)cc4)nc23)C1` [Example 132, 2-[4-(6-chloro-7-{[(3S)-1-ethylpyrrolidin-3-yl]amino}-3H-imidazo[4,5-b]pyridin-2-yl)phenoxy]-N-methylacetamide], for which the half-inhibitory concentration (IC50) was 860 nM in the data set with PBMC from CLL patients and above 20000 nM in data set [1].

As for `CNC(=O)COc1ccc(-c2nc3c(NC4CCN(C5CCCCC5)CC4)c(Cl)cnc3[nH]2)cc1` [Example 56, 2-(4-{6-chloro-7-[(1-cyclohexylpiperidin-4-yl)amino]-3H-imidazo[4,5-b]pyridin-2-yl}phenoxy)-N-methylacetamide], the concentration for half-maximal inhibition (IC50) was 370 nM with PBMC from CLL patients and above 20000 nM in data set [1].

Regarding `CNC(=O)COc1ccc(-c2nc3c(NC4CCN(Cc5c(C)nn(C)c5C)CC4)c(Br)cnc3[nH]2)cc1` [Example 288, 2-{4-[6-bromo-7-({1-[(1,3,5-trimethyl-1H-pyrazol-4-yl)methyl]piperidin-4-yl}amino)-3H-imidazo[4,5-b]pyridin-2-yl]phenoxy}-N-methylacetamide], the IC50 with PBMC from CLL patients is 400 nM; in data set [1], above 20000 nM.

As for `CNC(=O)Cc1ccc(-c2nc3c(NC4CCN(C)CC4)c(Cl)cnc3[nH]2)cc1` [Example 232, 2-(4-{6-chloro-7-[(1-methylpiperidin-4-yl)amino]-3H-imidazo[4,5-b]pyridin-2-yl}phenyl)-N-methylacetamide], the IC50 in the data set with PBMC from CLL patients is 570 nM; in data set [1] it was above 20000 nM.
